Experimental data as given in ChEMBL document CHEMBL1201862, “PubChem BioAssay data set” (2004).
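Interpolation was linear, between the two tested concentrations surrounding the appropriate level; five concentrations were tested over 48 hours in 96-well plates. The concentration for 50% growth inhibition is given as GI50.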 Calls of active or inactive are those of the source. Cut-off read from the data, not from the text of the source: active = GI50 up to about 1.1 µM and inactive = higher.

Columns and labels:
Assay in all cases: DTP human tumour cell line panel, 48 h
K562 = system: K562
ACHN = system: ACHN
KM12 = system: KM12
M14 = system: M14
COLO 205 = system: COLO 205
A549 = system: A549
SF-539 = system: SF-539
MDA-MB-435 = system: MDA-MB-435
OVCAR-4 = system: OVCAR-4
BT-549 = system: BT-549
UACC-257 = system: UACC-257
SW-620 = system: SW-620
NCI-H226 = system: NCI-H226
DU-145 = system: DU-145
SNB-75 = system: SNB-75
OVCAR-8 = system: OVCAR-8
HOP-62 = system: HOP-62
MDA-N = system: MDA-N
NCI-H23 = system: NCI-H23

| Structure (SMILES) | GI50 (K562) | GI50 (ACHN) | GI50 (KM12) | GI50 (M14) | GI50 (COLO 205) | GI50 (A549) | GI50 (SF-539) | GI50 (MDA-MB-435) | GI50 (OVCAR-4) | GI50 (BT-549) | GI50 (UACC-257) | GI50 (SW-620) | GI50 (NCI-H226) | GI50 (DU-145) | GI50 (SNB-75) | GI50 (OVCAR-8) | GI50 (HOP-62) | GI50 (MDA-N) | GI50 (NCI-H23) |
| --- | --- | --- | --- | --- | --- | --- | --- | --- | --- | --- | --- | --- | --- | --- | --- | --- | --- | --- | --- |
| CCOP(=O)(OCC)/C(C#N)=C/c1cccn1N(C)C | > 100 µM (inactive) | > 100 µM (inactive) | > 100 µM (inactive) | > 100 µM (inactive) | > 100 µM (inactive) | > 100 µM (inactive) | > 100 µM (inactive) | > 100 µM (inactive) | > 100 µM (inactive) | 62.2 µM (inactive) | > 100 µM (inactive) | > 100 µM (inactive) | > 100 µM (inactive) | 0.144 µM (active) | > 100 µM (inactive) | > 100 µM (inactive) | > 100 µM (inactive) | 0.0356 µM (active) | > 100 µM (inactive) |
| CC(C)(C)OC(=O)N1CC(CCl)c2ccc(O)cc21 (stereo not given) | 2.87 µM (inactive) | 1.11 µM (active) | 2.1 µM (inactive) | 1.72 µM (inactive) | 1.81 µM (inactive) | 3.12 µM (inactive) | 2.16 µM (inactive) | 1.99 µM (inactive) | 0.267 µM (active) | 1.97 µM (inactive) | 2.01 µM (inactive) | 2.59 µM (inactive) | 2.06 µM (inactive) | 0.589 µM (active) | 1.39 µM (inactive) | 3.59 µM (inactive) | 3.29 µM (inactive) | 1.86 µM (inactive) | 1.04 µM (active) |
| C=CCN1C(=O)/C(=C/c2ccc(OC)cc2)N=C1SC/C=C/C | 42.5 µM (inactive) | 56.4 µM (inactive) | 28.8 µM (inactive) | 54.7 µM (inactive) | 29.2 µM (inactive) | 18.9 µM (inactive) | > 100 µM (inactive) | 33.3 µM (inactive) | 37.7 µM (inactive) | 39.7 µM (inactive) | 36.7 µM (inactive) | 35.4 µM (inactive) | 53.7 µM (inactive) | 80 µM (inactive) | 31.2 µM (inactive) | 31.8 µM (inactive) | > 100 µM (inactive) | 26.7 µM (inactive) | 41.5 µM (inactive) |
| Cc1cccc2c1CC1(Cc3ccccc3C1=O)C2=O (stereo not given) | > 100 µM (inactive) | > 100 µM (inactive) | > 100 µM (inactive) | > 100 µM (inactive) | > 100 µM (inactive) | > 100 µM (inactive) | > 100 µM (inactive) | > 100 µM (inactive) | > 100 µM (inactive) | 24.7 µM (inactive) | > 100 µM (inactive) | > 100 µM (inactive) | > 100 µM (inactive) | > 100 µM (inactive) | 77.4 µM (inactive) | > 100 µM (inactive) | 35.7 µM (inactive) | > 100 µM (inactive) | > 100 µM (inactive) |
| COc1ccc([C@H](NC(=O)c2ccccc2)[C@@H](O)C(=O)O[C@H]2C[C@@]3(O)C(OC(=O)c4ccccc4)C4[C@](C)(C(=O)[C@H](OC(C)=O)C(=C2C)C3(C)C)[C@@H](O)C[C@H]2OC[C@@]42OC(C)=O)cc1 (stereo not given in full) | 0.00122 µM (active) | 0.724 µM (active) | < 0.001 µM (active) | 0.00604 µM (active) | 0.00274 µM (active) | 0.00618 µM (active) | 0.00112 µM (active) | < 0.001 µM (active) | 3.11 µM (inactive) | 0.0299 µM (active) | 0.00542 µM (active) | 0.00508 µM (active) | 0.00673 µM (active) | 0.00248 µM (active) | < 0.001 µM (active) | 0.00434 µM (active) | 0.015 µM (active) | 0.00468 µM (active) | 0.00236 µM (active) |
